Assays:
Type in all cases: in vivo, cat
feline model of GERD [1] = test: Lower esophageal sphincter pressure (LESP), manometric recording in sedated cats; conditions: MKC-733 1.0 and 10 mg/kg i.v., naive and omeprazole pretreated, FIG. 2
Protocol: (§1) Experiments to determine the effects of MKC-733, omeprazole or the combination of MKC-733 and omeprazole on LESP, lower esophageal pH, esophageal motility and TLESR, in a feline model of GERD were conducted.
The cats used in the experiments were fasted overnight and sedated with ketamine (15-20 mg/kg intramuscular injection). A butterfly catheter filled with heparinized sterile saline was placed into the brachial vein and used for supplemental ketamine anesthesia and drug administration.
Each animal was fitted with a water-perfused sleeve catheter (Andorfer Inc, Greendale, Wis.) attached via pressure transducers to a minimally compliant hydrolytic pump. […] This 4 cm region was referred to as site 1 and the pressure was simultaneously recorded along this region. […] Throughout the experiment, the output from the pressure transducers was manometrically recorded using the PowerLab Chart 5 data acquisition program (ADInstruments, Colorado Springs, Colo.) on a computer using a Windows XP operating system.
The manometric pressure recording at site 1 of the catheter provided the baseline (at rest) LESP for each animal. The baseline LESP was recorded for each measurement regimen set forth in Experiments 1 and 2 below, and then compared. […]
(§2) Following instrumentation, baseline values of LESP, esophageal pH, esophageal peristalsis and TLESR were measured as described above. […]

feline model of GERD [2] = test: Esophageal motility: peristaltic contraction amplitude after spontaneous dry swallows and balloon distension in cats
Protocol: as §1
Each animal was fitted with a water-perfused sleeve catheter (Andorfer Inc, Greendale, Wis.) attached via pressure transducers to a minimally compliant hydrolytic pump. The sleeve was positioned within the LES with the tip placed into the stomach. The total distance between recording site 0 (tip in the stomach) and recording site 2 was 4 cm. This 4 cm region was referred to as site 1 and the pressure was simultaneously recorded along this region. […] Throughout the experiment, the output from the pressure transducers was manometrically recorded using the PowerLab Chart 5 data acquisition program (ADInstruments, Colorado Springs, Colo.) on a computer using a Windows XP operating system.
The manometric pressure recordings at sites 1-5 of the sleeve catheter were recorded during primary peristalsis induced by three spontaneous dry swallows (SDS) and secondary peristalsis induced by 3 balloon distensions (BD; distension of a balloon catheter 2 cm in diameter for 5 second placed in the mid portion of the esophagus).
Esophageal motility was characterized based on the amplitude of the contractions recorded at sites 2-5 of the catheter in response to three SDS and three BD. […]

feline model of GERD [3] = test: Lower esophageal pH monitoring during gastroesophageal reflux in sedated cats; conditions: naive, MKC-733 1.0 and 10 mg/kg i.v.
Protocol: as §1
An Orion II pH probe (Medical Measurements Systems), running along with the manometric catheter, was positioned with one pH measuring site in the stomach and a second pH measuring site in the distal esophagus. pH was monitored and recorded simultaneously with the manometric recordings using a computerized data acquisition system (Medical Measurements Systems).
The pH in the lower esophagus was monitored at the same time as the manometric pressure. The pH was recorded for each measurement regimen set forth in Experiments 1 and 2.
All animals were acclimated to the facility for one week prior to testing. […]
as §2
Data is presented as mean±SEM. […] Significance of LESP treatment effects within and between experiments was evaluated using 2-Way repeated measures ANOVA. […] Significance of treatment effects for pH was evaluated using a nonparametric one-way repeated measures ANOVA (Friedman Test). […]
In 2 of the 5 animals, the 10 mg/kg dose was not administered. In 1 of the 3 remaining animals, pH was also not recorded following the […] dose.

## O=C(N[C@H]1CN2CCC1CC2)c1c[nH]c2ccsc2c1=O [MKC-733, (R)—N-1-azabicyclo[2.2.2]oct-3-yl-4,7-dihydro-7-oxothieno[3,2-b]pyridine-6-carboxamide]
Feline model of GERD [1]
  LESP normalized to vehicle controls within experiments: statistically significant dose-dependent increase in LESP
Feline model of GERD [2]; MKC-733 1.0 and 10 mg/kg i.v., normalized to vehicle, FIG. 5
  oral-to-aboral peristaltic contraction amplitude: dose-dependent significant enhancement
Feline model of GERD [2]; MKC-733 i.v., data not shown
  difference in effect on peristaltic contraction amplitude between naive cats and those pretreated with omeprazole: no significant differences
Feline model of GERD [3]; FIG. 3
  percentage of time during gastroesophageal (GER) episodes when lower esophageal pH was greater than 4.0: positive trend that appeared dose-dependent
Feline model of GERD [3]; FIG. 4
  nadir pH values during GER: did not effect nadir pH values

Source: patent publication US20090048287A1, “Compositions useful for treating gastrointestinal motility disorders” (priority 2003, published 2009)
